Data as given in ChEMBL document CHEMBL4425172, “Chemical synthesis, pharmacological evaluation and in silico analysis of new 2,3,3a,4,5,6-hexahydrocyclopenta[c]pyrazole derivatives as potential anti-mitotic agents” (Bioorg Med Chem Lett, 2016).
Activity calls are given as the source filed them. The calls are words filed in the database; no cut-off is given here.

Tests used:
MDA-MB-231 = assay: Antiproliferative activity against human MDA-MB-231 cells assessed as reduction in cell viability measured after 72 hrs by MTS assay; format: functional, cell-based
MDA-MB-468 = assay: Antiproliferative activity against human MDA-MB-468 cells assessed as reduction in cell viability measured after 72 hrs by MTS assay; format: functional, cell-based
T47D = assay: Antiproliferative activity against human T47D cells assessed as reduction in cell viability measured after 72 hrs by MTS assay; format: functional, cell-based
MCF7 = assay: Antiproliferative activity against human MCF7 cells assessed as reduction in cell viability measured after 72 hrs by MTS assay; format: functional, cell-based
A549 = assay: Antiproliferative activity against human A549 cells assessed as reduction in cell viability measured after 72 hrs by MTS assay; format: functional, cell-based
[1] = Binding affinity to goat tubulin by double reciprocal plot analysis; set-up: species or system Capra hircus
Capra hircus [2] = organism: Capra hircus; assay: Binding affinity to goat tubulin assessed as increase in tubulin-colchicine fluorescence preincubated for 30 mins followed by colchicine addition measured after 60 mins by tryptophan fluorescence quenching assay
Capra hircus [3] = organism: Capra hircus; assay: Binding affinity to goat tubulin by tryptophan fluorescence quenching assay
[4] = Homo sapiens, MCF7, 72 h, read-out: IC50
[5] = Homo sapiens, MDA-MB-231, 72 h, read-out: IC50
[6] = Homo sapiens, MDA-MB-468, 72 h, read-out: IC50
[7] = Homo sapiens, T47D, 72 h, read-out: IC50
[8] = Homo sapiens, A549, 72 h, read-out: IC50

SMILES | IC50 (MDA-MB-231; mda-mb-231) | IC50 (MDA-MB-468; mda-mb-468) | IC50 (T47D; t47d) | IC50 (MCF7; [4]) | IC50 (A549; a549) | IC50 (MDA-MB-231; [5]) | IC50 (MDA-MB-468; [6]) | IC50 (T47D; [7]) | IC50 (MCF7; mcf7) | IC50 (A549; [8]) | Kd [1] | Activity (Capra hircus [2]) | Activity (Capra hircus [3])
COc1ccc(C2C3CCCC3=NN2S(=O)(=O)c2ccc(C)cc2)cc1 (centres undefined) | Not Active | Not Active | Not Active | 178 µM | Not Active | – | – | – | – | – | – | – | –
Cc1ccc(S(=O)(=O)N2N=C3CCCC3C2c2ccc(C(C)C)cc2)cc1 (centres undefined) | – | – | – | – | Not Active | 15.5 µM | 7.9 µM | 40.7 µM | Not Active | – | – | – | –
CC(C)c1ccc(C2NN=C3CCCC32)cc1 (centres undefined) | – | – | – | – | Not Active | 144 µM | 186 µM | 129 µM | Not Active | – | – | – | –
O=S(=O)(c1ccc(Cl)cc1)N1N=C2CCCC2C1c1ccc(F)cc1 (centres undefined) | – | Not Active | – | – | Not Active | 9.3 µM | – | 89.1 µM | Not Active | – | – | – | –
O=[N+]([O-])c1ccc(S(=O)(=O)N2N=C3CCCC3C2c2ccc(Cl)cc2)cc1 (centres undefined) | – | – | Not Active | – | Not Active | 42.7 µM | 43.7 µM | – | Not Active | – | – | – | –
CC(C)c1ccc(C2C3CCCC3=NN2S(C)(=O)=O)cc1 (centres undefined) | Not Active | – | Not Active | – | Not Active | – | 120 µM | – | Not Active | – | – | – | –
Clc1ccc(C2NN=C3CCCC32)cc1 (centres undefined) | – | – | – | 51.3 µM | – | 25.1 µM | 10.2 µM | 29.5 µM | – | 47.9 µM | – | – | –
CC(C)c1ccc(C2C3CCCC3=NN2S(=O)(=O)c2ccc(Cl)cc2)cc1 (centres undefined) | Not Active | – | Not Active | – | Not Active | – | 15.5 µM | – | Not Active | – | – | – | –
COc1ccc(C2NN=C3CCCC32)cc1 (centres undefined) | Not Active | – | Not Active | 24 µM | – | – | 20 µM | – | – | 44.7 µM | – | – | –
COc1ccc(C2C3CCCC3=NN2S(=O)(=O)c2ccc([N+](=O)[O-])cc2)cc1 (centres undefined) | Not Active | Not Active | Not Active | 151 µM | Not Active | – | – | – | – | – | – | – | –
Fc1ccc(C2NN=C3CCCC32)cc1 (centres undefined) | – | – | – | 38 µM | – | 30.9 µM | 14.8 µM | 37.2 µM | – | 30.9 µM | – | – | –
COc1ccc(C2C3CCCC3=NN2S(C)(=O)=O)cc1 (centres undefined) | – | – | – | 15.8 µM | – | 8.7 µM | 1 µM | 0.8 µM | – | 19.1 µM | 85 µM | Dose-dependent effect | –
CC(C)c1ccc(C2C3CCCC3=NN2S(=O)(=O)c2ccc([N+](=O)[O-])cc2)cc1 (centres undefined) | Not Active | – | Not Active | – | Not Active | – | 28.2 µM | – | Not Active | – | – | – | –
CS(=O)(=O)N1N=C2CCCC2C1c1ccc(F)cc1 (centres undefined) | – | – | Not Active | 75.9 µM | – | 51.3 µM | 70.8 µM | – | – | 81.3 µM | 127 µM | Dose-dependent effect | –
Cc1ccc(S(=O)(=O)N2N=C3CCCC3C2c2ccc(F)cc2)cc1 (centres undefined) | – | – | – | 50.1 µM | – | 1.1 µM | 3.8 µM | 3.3 µM | – | 5.8 µM | – | – | Active
CC(=O)O[C@H]1C(=O)[C@@]2(C)[C@H]([C@H](OC(=O)c3ccccc3)[C@]3(O)C[C@H](OC(=O)[C@H](O)[C@@H](NC(=O)c4ccccc4)c4ccccc4)C(C)=C1C3(C)C)[C@]1(OC(C)=O)CO[C@@H]1C[C@@H]2O [PACLITAXEL] | – | – | – | 0.1 µM | – | 0.1 µM | 0.2 µM | 0.2 µM | – | – | – | – | –
